Here are results for 7 compounds from US20240182472A1, “INDAZOLE PYRIDONE COMPOUNDS AND USES THEREOF” (Bluejay Therapeutics, Inc., priority 2022, published 2024).

One data set deals with HBV S-antigen secretion. The data set is described as follows: HBsAg assay (HepG2 HBV S-antigen secretion biological assay). It counts as cell-based. As to conditions: Hepatitis B virus, HepG2.2.15, 72 h, read-out: EC50, HBV S-antigen secretion. How it is done:
HepG2.2.15 cells were grown in flasks microscopically and seeded into 96-well plates at a concentration of 6.0×10^4 cells/well and incubated at 37° C., 5% CO2 overnight.
Source plate preparation. The stock concentration of reference compound and test compounds is 20 mM. Firstly, manually diluted the compound to obtain the first concentration points of 10 μM and 200 μM, respectively. Then a 3-fold, 8 points serial dilution is performed to obtain the 200× source plate.
Source plate compounds were pipetted as follows: 3 μL 200× source plate compounds into sterile 2 mL 96 well plate which contain 297 μL 2% FBS Medium, mix well and transfer 100 μL/well to corresponding cell culture plates. Therefore, the test conditions of the final compounds is 1 μM initiation, 3-fold serial dilution, and 8 concentration points in duplicate.
Incubate the cells at 37° C., 5% CO2 for three days.
24 hours post-seeding, the cells were treated with 200 μl/well of media containing serially diluted compounds in DMSO. DMSO alone was used as the no drug control. The final DMSO concentration in all wells was 0.5%.
The HBsAg kit (Auto Biology-CL 0310) was used to determine the level of secreted HBVsAg. The HBSAg assay was performed as follows: • a) Blance the ELISA kit at room temperature for 30 minutes. • b) Add 50 μL standard solution, sample, positive and negative control to each well of the microplate in the kit. • c) Add 50 μL HBsAg enzyme conjugate to each well. • d) Attach the plate membrane, oscillate for 60 seconds, and incubate at 37° C. for 60 minutes. • e) Add 350 μL washing buffer to each well, shake slightly, discard liquid, repeat 6 times. Then pat 5 times on an absorbent paper towel to dry the hole. • f) Add 50 μL mixture of reagent A and B to each well. Oscillate the microplate for 10 seconds. • g) Cover the plate membrane and incubate at room temperature for 10 minutes. Read the luminescent signal using Biotek-Synergy 2.
Compounds inhibition against HBsAg at different concentrations are calculated by the following formula:
Inhibition %=(1−value of sample/ave. value of control)×100
50% effective concentrations (EC50) and were calculated with the GraphPad Prism software.

The nature of data set [1]: In vivo pharmacokinetic study, oral, plasma and liver, rat. More on the design: species or system Sprague Dawley rats. As to conditions: for Observed level of "active metabolite" AUC0→last, Liver / Observed level of "active metabolite" AUC0→last, Plasma: active metabolite I.6 released after oral prodrug 32 mpk, Sprague-Dawley rats, n = 3; for concentrations of the dosed prodrug itself in plasma and tissue: single PO administration at 32 mg/kg in male SD rats, PK parameters not determined. How it is done:
The compounds of this invention were tested orally administered in a formulation of 25% PEG 400: 10% solutol: 65% water with a 5 mL/Kg solution across species of CD-1 mice, C57BL/J6 mice, or Sprague Dawley rats following IACUC guidelines. The rat PK of Compound I.9 and Compound I.10 PO dose of 32 mpk exemplifies the methodology used across species.
The purpose of this rat PK study was to determine the pharmacokinetics of Compound I.9, Compound I.6 and Compound I.10 in plasma following oral gavage administration of Compound I.9 and Compound I.10 to male SD rats. For PO groups, the liver and plasma concentration were measured at 1, 2, 6 and 10 h post-dose. Concentrations of Compound I.9, Compound I.6 and Compound I.10 in plasma and tissue samples were determined by a liquid chromatography tandem mass spectrometry (LC-MS/MS) method. Oral (PO) Dose—Groups 1 and 2 Compound I.9 was prepared as a clear solution in 25% PEG400+10% Solutol+65% water (Adjust the final pH to 7˜8). Groups 3 and 4 Compound I.10 was prepared as a homogeneous suspension in 25% PEG400+10% Solutol+65% water (Adjust the final pH to 7˜8). Blood (about 0.2 mL) was collected at each time point via jugular vein puncture from each study animal into a tube A. The following 4-mix stabilizer for esterase inhibition was added into a pre-chilled commercial tube B containing potassium (K2) EDTA (0.85-1.15 mg) in advance. Then the blood in the tube A will be accurately transferred (4-mix stabilizer: blood, 1:10 (v:v)) into the tube B and placed on wet ice until centrifugation.
The following 4-mix stabilizer was added into the cold homogenizing buffer (MeOH/15 mM PBS 1:2) in advance. Then each tissue was weighed and added the cold homogenizing buffer with stabilizer at the ratio of 1:9 (1 g tissue with 9 mL buffer), then homogenized on wet ice. The tissue homogenate was kept at −60° C. or lower until LC-MS/MS analysis.
Bioanalytical Analysis The concentrations of Compound I.9, Compound I.6 and Compound I.10 in plasma and tissue were determined by using an LC-MS/MS method. Instrumentation and conditions for
Compound I.9, Compound I.10 and Compound I.6 in plasma and tissue homogenate. • LC parameters • Equipment: ACQUITY UPLC System • Analytical column: ACQUITY UPLC HSS T3 1.8 μm 2.1×50 mm • Inject volume: 5 μL for plasma; 3.5 μL for tissue homogenate • Mobile phase A: 0.1% FA & 2 mmol/L HCOONH4 in water/ACN (v/v, 95:5) • Mobile phase B: 0.1% FA & 2 mmol/L HCOONH4 in ACN/water (v/v, 95:5) • Elution Mode: Gradient
• Mass spectrometer: Triple Quad 6500 plus • Ionization mode: ESI (+) • Detective mode: MRM

In the case of `CCCCOC(=O)CCCCCCCOc1cccc2c3n(nc12)C[C@@H](C(C)(C)C)n1cc(C(=O)O)c(=O)cc1-3` [I.10, (R)-10-((8-butoxy-8-oxooctyl)oxy)-6-(tert-butyl)-2-oxo-6,7-dihydro-2H-pyrido[2′,1′:3,4]pyrazino[1,2-b]indazole-3-carboxylic acid], the EC50 (in general, the midpoint of the concentration-response curve) with HBV S-antigen secretion was 4 ± 0.8 nM. Moreover, in data set [1], the “Observed level of "active metabolite" AUC0→last, Liver” value was 19444 ng·h/g; the “Observed level of "active metabolite" AUC0→last, Plasma” value was 146 ng·h/g; the “concentrations of the dosed prodrug itself in plasma and tissue” value was “most concentrations were below the lower limit of quantitation”. With `CC(C)(C)[C@@H]1Cn2nc3c(OCCCCCC(=O)O)cccc3c2-c2cc(=O)c(C(=O)O)cn21` [I.1, (R)-6-(tert-butyl)-10-((5-carboxypentyl)oxy)-2-oxo-6,7-dihydro-2H-pyrido[2′,1′:3,4]pyrazino[1,2-b]indazole-3-carboxylic acid], the EC50 with HBV S-antigen secretion is 25.5 nM. On the same count and under the same terms, the figure for `CC(C)(C)[C@@H]1Cn2nc3c(OCCCCCCCCC(=O)O)cccc3c2-c2cc(=O)c(C(=O)O)cn21` [I.13, (R)-6-(tert-butyl)-10-((8-carboxyoctyl)oxy)-2-oxo-6,7-dihydro-2H-pyrido[2′,1′:3,4]pyrazino[1,2-b]indazole-3-carboxylic acid] is 1.2 ± 0.5 nM. On to `CC(C)OC(=O)CCCCCCCOc1cccc2c3n(nc12)C[C@@H](C(C)(C)C)n1cc(C(=O)O)c(=O)cc1-3` [I.9, (R)-6-(tert-butyl)-10-((8-isopropoxy-8-oxooctyl)oxy)-2-oxo-6,7-dihydro-2H-pyrido[2′,1′:3,4]pyrazino[1,2-b]indazole-3-carboxylic acid], for which, in the data set on HBV S-antigen secretion, the EC50 was determined as 5.3 ± 0.9 nM. Moreover, in data set [1], the “Observed level of "active metabolite" AUC0→last, Liver” value worked out at 29367 ng·h/g; the “Observed level of "active metabolite" AUC0→last, Plasma” value was found to be 290 ng·h/g; the “concentrations of the dosed prodrug itself in plasma and tissue” value is “most concentrations were below the lower limit of quantitation”. With `CCOC(=O)CCCCCCCOc1cccc2c3n(nc12)C[C@@H](C(C)(C)C)n1cc(C(=O)O)c(=O)cc1-3` [I.7, (R)-6-(tert-butyl)-10-((8-ethoxy-8-oxooctyl)oxy)-2-oxo-6,7-dihydro-2H-pyrido[2′,1′:3,4]pyrazino[1,2-b]indazole-3-carboxylic acid], the EC50 in the data set with HBV S-antigen secretion was found to be 7.1 nM. Still for that read-out and setting: the figure for `CCOC(=O)CCCCCCOc1cccc2c3n(nc12)C[C@@H](C(C)(C)C)n1cc(C(=O)O)c(=O)cc1-3` [I.3, (R)-6-(tert-butyl)-10-((7-ethoxy-7-oxoheptyl)oxy)-2-oxo-6,7-dihydro-2H-pyrido[2′,1′:3,4]pyrazino[1,2-b]indazole-3-carboxylic acid] is 11.8 nM; for `CCCCCCCOC(=O)CCCCCCOc1cccc2c3n(nc12)C[C@@H](C(C)(C)C)n1cc(C(=O)O)c(=O)cc1-3` [I.4, (R)-6-(tert-butyl)-10-((7-(heptyloxy)-7-oxoheptyl)oxy)-2-oxo-6,7-dihydro-2H-pyrido[2′,1′:3,4]pyrazino[1,2-b]indazole-3-carboxylic acid] it is 14 nM.
